# Measured values reported in publication PMC9841532, “Exploring the Effect of Halogenation in a Series of Potent and Selective A2B Adenosine Receptor Antagonists” (Journal of Medicinal Chemistry, 2022).
# Like-named read-outs stand apart in the source and are kept apart here.
# Key:
# [1] = molecular target: T1, hA2AAR (Homo sapiens, UniProt P29274); assay: Radioligand binding competition, [3H]ZM241385, membranes from HeLa-A2A cells; settings: 1 μM, [3H]ZM241385, human HeLa cells, n = 2
# T1 construct: expressed in transfected cells; host or cells: HeLa (HeLa-A2A) cell membranes
# T1 sequence (P29274 whole entry): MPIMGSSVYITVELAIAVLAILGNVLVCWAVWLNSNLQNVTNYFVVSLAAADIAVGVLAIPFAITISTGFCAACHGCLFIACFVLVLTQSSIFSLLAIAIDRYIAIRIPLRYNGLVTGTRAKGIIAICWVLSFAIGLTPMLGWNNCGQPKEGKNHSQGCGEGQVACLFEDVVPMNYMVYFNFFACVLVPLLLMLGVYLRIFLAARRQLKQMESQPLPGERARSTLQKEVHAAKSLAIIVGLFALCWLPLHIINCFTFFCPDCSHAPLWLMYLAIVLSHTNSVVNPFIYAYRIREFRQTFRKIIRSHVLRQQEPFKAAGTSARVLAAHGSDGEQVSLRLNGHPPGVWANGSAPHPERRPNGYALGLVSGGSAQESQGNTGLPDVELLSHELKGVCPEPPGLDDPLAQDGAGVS
# Method in brief: (§1)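 Racemates, plus selected enantiomers after chiral resolution, were tested at 25 °C, with a 60 min incubation for one subtype and 30 min for others. Non-specific binding was defined with 10 μM or 100 μM R-PIA. Bound radioactivity was counted after washing and filtration.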
# [2] = molecular target: T2, A2BAR (Homo sapiens, UniProt P29275); assay: Cellular impedance label-free assay (xCELLigence) in A2BAR-SNAP cells; type: cell-based; settings: compound 1 μM, NECA 1 μM, 45 min, n = 4
# T2 construct: expressed in transfected cells; host or cells: HEK-293 T cells permanently expressing pRK5-A2BAR^SNAP
# T2 sequence (P29275 1-332): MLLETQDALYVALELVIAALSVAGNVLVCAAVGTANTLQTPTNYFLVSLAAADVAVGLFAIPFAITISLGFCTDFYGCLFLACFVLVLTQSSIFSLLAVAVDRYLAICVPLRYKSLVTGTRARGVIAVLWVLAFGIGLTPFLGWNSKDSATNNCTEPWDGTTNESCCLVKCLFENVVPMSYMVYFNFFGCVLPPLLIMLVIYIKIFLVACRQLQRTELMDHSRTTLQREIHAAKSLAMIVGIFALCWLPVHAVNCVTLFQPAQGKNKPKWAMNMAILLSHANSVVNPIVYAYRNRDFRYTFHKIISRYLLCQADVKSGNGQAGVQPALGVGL
# Text: To further evaluate the ability of 16b, 16j, 16r, and 16s to preclude A2BAR function in living cells, we took advantage of the cellular impedance label-free method, a widely accepted morphological and functional biosensor of cell status.[39] Accordingly, whole-cell NECA-mediated impedance responses of A2BAR^SNAP cells were monitored in real time in the absence or presence of 16b, 16j, 16r, and 16s.
# Figure 4 Blockade of A2BAR-mediated whole-cell label-free responses. (A) Representative example of the impedance signal obtained over the time upon incubation with A2BAR ligands. […] (B) The area under the curve (AUC) derived from the normalized cell index (NCI) shown in (A) was calculated for each condition. Data are expressed as mean ± SEM (n = 4). ***P < 0.001 and **P < 0.01, one-way ANOVA with a Dunnett’s multiple-comparison test when compared to vehicle (Veh).
# The xCELLigence RTCA system (Roche) was employed to assess the impact of blocking A2BAR-mediated effects in cellular impedance upon receptor activation, as previously described.[57]−[60] To this end, A2BAR^SNAP cells were growth in 16-well E-plates (Roche), using DMEM supplemented with 1 mM sodium pyruvate, 2 mM L-glutamine, 100 U/mL streptomycin, […] penicillin, and 1.5% (v/v) fetal bovine serum in the presence of 0.5 U/mL of ADA. Of note, wells were previously coated with 50 μL fibronectin (10 μg/mL; Sigma-Aldrich) and the background index for each well was determined with supplemented DMEM (90 μL) in the absence of cells. Subsequently, A2BAR^SNAP cells (90 μL) were plated at a cell density of 10,000 cells/well and grown for 18 h in the RTCA SP device station (Roche) at 37 °C in an atmosphere of 5% CO2. Then, before ligand addition, cell index values were normalized to the same time point using the RTCA software, providing the normalized cell index (NCI). After ligand stimulation, NCI was recorded every 15 s for a total time of at least 45 min. The area under the curve (AUC) for every condition was calculated using GraphPad Prism 9.
# [3] = molecular target: T3, hA2BAR (Homo sapiens, UniProt P29275); assay: Radioligand binding competition, [3H]DPCPX, membranes from HEK-293-A2B cells; settings: read-out: Ki hA2B
# T3 construct: host or cells: HEK-293 (HEK-293-A2B) cell membranes
# T3 sequence (P29275 1-332): T2 sequence (P29275 1-332)
# Method in brief: as §1
# [4] = molecular target: T4, hA1AR (Homo sapiens, UniProt P30542); assay: Radioligand binding competition, [3H]DPCPX, membranes from CHO-A1 cells; settings: 1 μM, [3H]DPCPX, human CHO cells, n = 2
# T4 sequence (P30542 1-326): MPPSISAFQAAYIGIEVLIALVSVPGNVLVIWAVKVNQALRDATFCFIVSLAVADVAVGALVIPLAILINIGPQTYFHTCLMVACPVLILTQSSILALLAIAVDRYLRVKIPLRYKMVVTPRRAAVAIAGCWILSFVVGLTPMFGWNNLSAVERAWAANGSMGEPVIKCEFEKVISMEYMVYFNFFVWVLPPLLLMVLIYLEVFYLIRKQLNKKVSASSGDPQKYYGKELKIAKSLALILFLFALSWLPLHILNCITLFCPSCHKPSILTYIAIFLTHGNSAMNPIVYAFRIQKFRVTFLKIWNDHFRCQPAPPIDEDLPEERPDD
# Method in brief: as §1
# [5] = molecular target: T5, hA3AR (Homo sapiens, UniProt P0DMS8); assay: Radioligand binding competition, [3H]NECA, membranes from HeLa-A3 cells; settings: 1 μM, [3H]NECA, human HeLa cells, n = 2
# T5 construct: expressed in transfected cells; host or cells: HeLa (HeLa-A3) cell membranes
# T5 sequence (P0DMS8 1-318): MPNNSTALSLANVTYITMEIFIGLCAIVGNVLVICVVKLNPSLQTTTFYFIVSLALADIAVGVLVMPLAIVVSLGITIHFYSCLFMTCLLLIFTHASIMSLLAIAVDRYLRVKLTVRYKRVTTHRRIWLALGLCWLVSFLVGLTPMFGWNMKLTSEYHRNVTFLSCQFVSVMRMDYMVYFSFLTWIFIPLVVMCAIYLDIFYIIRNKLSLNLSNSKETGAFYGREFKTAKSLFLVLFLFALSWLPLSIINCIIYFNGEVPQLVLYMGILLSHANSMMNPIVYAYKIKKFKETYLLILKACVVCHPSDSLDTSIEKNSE
# Method in brief: as §1
# [6] = molecular target: T2, A2BAR; assay: cAMP accumulation assay in HEK-293 cells permanently expressing A2BAR-SNAP; type: cell-based; settings: read-out: KB (hA2B)
# Description: To assess their ability to block A2BAR agonist intrinsic activity, the effect on A2BAR-mediated cAMP accumulation and cellular impedance was evaluated. To this end, we used HEK-293 cells permanently expressing the A2BAR^SNAP construct, which can be visualized upon staining the cells with a SNAP-fluorescent substrate.
# Scale bar: […]. […] Data are expressed as mean ± SEM (n = 4).
# cAMP accumulation was measured using the LANCE Ultra cAMP kit (PerkinElmer, Waltham, Massachusetts, USA) as previously described.[55] […] The 384-well plate was incubated 1 h at 22 °C in the dark and was then read on a CLARIOstar Microplate Reader (BMG Labtech, Durham, North Carolina, USA). […] Data were fitted by non-linear regression using GraphPad Prism 9 (San Diego, California, USA).
smiles,measurement,setting,value
CCOC(=O)C1=C(C)Nc2nc3cc(Br)ccc3n2C1c1ccoc1 (stereo not shown) [16s],% at 1 μM hA2A (percentage displacement of specific binding),[1],37%
same,Blockade of NECA-induced changes in cellular impedance (AUC of normalized cell index),[2],significantly blocked
same,Ki,"[3]; displacement of specific [3H]DPCPX binding in human HEK-293 cells, n = 3",3.32 ± 0.4 nM
same,Ki,[3],< 10 nM
same,% at 1 μM hA1 (percentage displacement of specific binding),[4],1%
same,% at 1 μM hA3 (percentage displacement of specific binding),[5],25%
same,Kb,[6],1.5 ± 0.5 nM
